In the test the test system is human T cells. In words: Human T cell activation assay (anti-CD3 plus peptide, cytokine secretion). The class given is cell-based. The procedure:
FIGS. 11 and 12 show 150 peptide variants of the SG-3-0020 1-29 aa N-terminal+middle region, derived from a combinatorial phage display library, were tested for activation potential of human T cells. […] Increase in cytokine secretion was concordant in 3 donors.
For example, PBMCs were obtained from individual human donors.
T-cell activation was also determined as described previously (see above and International Application No. PCT/US2020/012431). […] Separate N-, MID, and C-terminal fragments lose activity. The data support that both N- and middle region are minimally required for binding and activation to T cells.

[1] abbreviates: Table 11, 150 combinatorial library variants of SEQ ID NO:1.
The mark [2] stands for this setting: Table 10, combinatorial library variants of SEQ ID NO:1.

With “MASAAKGKTHDHYPSGRMRPPPWHDWRFS [SEQ ID NO: 263]”, the mean_ES_IFN-γ under setting [1] was 0.8848.

With “WTSAAKGKTHDHYPSGRYRPPPWHDWRVR [SEQ ID NO: 357]”, the mean_ES_IFN-γ under setting [1] is −1.02. On to “VPSAAKGKWHDHNPGGRHRPPPWHDWRAS [SEQ ID NO: 291]”, for which the mean_ES_IFN-γ under setting [1] was found to be 0.7119.

Take “WLSAAKGKTHDHWGSGRWRDPPWHDWRFS [SEQ ID NO: 345]”: the mean_ES_IFN-γ under setting [1] was determined as 0.06564.

“MLSAAKTKTHDHWGSGRMRDPPWHDWRVS [SEQ ID NO: 351]”: the mean_ES_IFN-γ under setting [1] is −0.1331. Same read-out and setting: for “MPSTAKGKWHDHNPSGRMRPPPWHDWRGR [SEQ ID NO: 277]” the value was 0.7934; for “VVSTAKGKTHDHYWSGRYRPPPWHDWRAR [SEQ ID NO: 259]”, 0.9101. As for “FPSGAKTKWHDHNPSGRMRDPPWHDWRFS [SEQ ID NO: 306]”, under setting [1], the mean_ES_IFN-γ came to 0.6024. On to “MPSAAKTKWHDHYPSGRMRPPPWHDWRGR [SEQ ID NO: 28]”, for which the mean_ES_IFN-γ is, setting by setting: under setting [2], 1.071; under setting [1], 1.071. “WSSTAKTKWHDHNGGGRMRPPPWHDWRAR [SEQ ID NO: 305]”: the mean_ES_IFN-γ under setting [1] is 0.612.

Turning to “PSSAAKGKTHDHYPGGRYRDPGWHDWRGR [SEQ ID NO: 343]”, the mean_ES_IFN-γ under setting [1] is listed as 0.2141. As to “MLSTAKGKTHDHWGGGRMRPPPWHDWRFS [SEQ ID NO: 2]”, the mean_ES_IFN-γ reads like this: under setting [2], 1.408; under setting [1], 1.408.

“FVSTAKGKTHDHNWSGRMRPPPWHDWRGR [SEQ ID NO: 248]”: the mean_ES_IFN-γ under setting [1] was found to be 0.9668. Same read-out and setting: for “WGSGAKTKWHDHNWSGRMRPPPWHDWRFS [SEQ ID NO: 354]” the value was −0.315. As to “FVSAAKGKTHDHYPSGRYRPPPWHDWRAR [SEQ ID NO: 25]”, the mean_ES_IFN-γ by setting is: under setting [2], 1.088; under setting [1], 1.088. For “VGSGAKGKTHDHNGSGRYRPPPWHDWRFS [SEQ ID NO: 299]”, the mean_ES_IFN-γ under setting [1] is listed as 0.6497. On the same count and under the same terms, for “WTSGAKGKWHDHNGGGRMRDPGWHDWRFS [SEQ ID NO: 309]” the value was 0.5851.

With “VHSAAKTKTHDHWGSGRMRDPPWHDWRGS [SEQ ID NO: 346]”, the mean_ES_IFN-γ under setting [1] is 0.04292. Turning to “VVSGAKGKTHDHNWGGRYRPPPWHDWRGS [SEQ ID NO: 296]”, the mean_ES_IFN-γ under setting [1] worked out at 0.6729. Regarding “PLSAAKTKWHDHYGGGRMRPPPWHDWRFS [SEQ ID NO: 265]”, the mean_ES_IFN-γ under setting [1] is reported as 0.8534. For the sequence “WTSAAKTKWHDHYGGGRMRPPPWHDWRAR [SEQ ID NO: 272]”, the mean_ES_IFN-γ under setting [1] is reported as 0.8379. In the case of “MGSGAKTKWHDHWPSGRMRPPPWHDWRFS [SEQ ID NO: 284]”, the mean_ES_IFN-γ under setting [1] is on record as 0.7374. Same read-out and setting: then “MSSGAKGKWHDHNWGGRMRDPGWHDWWGS [SEQ ID NO: 301]”, with 0.6348; and “MGSAAKGKWHDHYGSGRMRPPPWHDWRVR [SEQ ID NO: 262]”, with 0.8865; and “MLSAAKGKTHDHYPSGRYRPPPWHDWRAR [SEQ ID NO: 269]”, with 0.8464.

Take “WSSGAKTKWHDHNGSGRYRPPPWHDWRGS [SEQ ID NO: 286]”: the mean_ES_IFN-γ under setting [1] is reported as 0.7241. Same read-out and setting: then “VTSAAKTKWHDHNGSGRYRDPGWHDWRGS [SEQ ID NO: 347]”, with 0.01499; and “WSSAAKGKTHDHYGGGRMRPPPWHDWRAR [SEQ ID NO: 338]”, with 0.2829; and “MGSAAKGKWHDHNGSGRMRPPPWHDWRAR [SEQ ID NO: 279]”, with 0.7782. On to “MGSGAKTKTHDHYPGGRYRPPPWHDWRVS [SEQ ID NO: 276]”, for which the mean_ES_IFN-γ under setting [1] came out at 0.8105. Same read-out and setting: for “PASAAKGKTHDHWPSGRHRDPPWHDWRGS [SEQ ID NO: 353]” the value was −0.2788. As for “MPSAAKGKWHDHYPGGRMRDPKWHDWRFS [SEQ ID NO: 8]”, the mean_ES_IFN-γ is, setting by setting: under setting [2], 1.282; under setting [1], 1.282.

Turning to “MGSAAKTKWHDHYGGGRMRPPPWHDWRAR [SEQ ID NO: 247]”, under setting [1], the mean_ES_IFN-γ came to 0.9744. On the same count and under the same terms, for “WSSAAKTKWHDHNPGGRYRPPPWHDWRFR [SEQ ID NO: 332]” the value was 0.3258; for “VSSGAKTKTHDHNPSGRMRDFKWHDWRGS [SEQ ID NO: 350]”, −0.1153; for “FASGAKGKTHDHYPSGRHRPPPWHDWRAS [SEQ ID NO: 316]”, 0.5231. The same measure, in the same setting: then “MLSTAKGKTHDHYGGGRMRPPPWHDWRFS [SEQ ID NO: 249]”, with 0.9561. Turning to “FLSGAKGKTHDHYPSGRYRPPPWHDWRAR [SEQ ID NO: 15]”, the mean_ES_IFN-γ was 1.193 under setting [2] and 1.193 under setting [1].

For the sequence “FGSGAKGKTHDHWGGGRHRPPPWHDWRGS [SEQ ID NO: 6]”, the mean_ES_IFN-γ by setting is: under setting [2], 1.321; under setting [1], 1.321. As to “MLSGAKGKTHDHYWGGRMRPPPWHDWRGS [SEQ ID NO: 22]”, the mean_ES_IFN-γ is, setting by setting: under setting [2], 1.134; under setting [1], 1.134. Take “FASGAKGKTHDHNWGGRYRDPGWHDWRAS [SEQ ID NO: 281]”: the mean_ES_IFN-γ under setting [1] stood at 0.7548. Same read-out and setting: for “WASGAKGKTHDHWPGGRHRDPPWHDWRVS [SEQ ID NO: 271]” the value was 0.8431. For “FSSAAKGKWHDHWPGGRYRDPPWHDWRVS [SEQ ID NO: 14]”, the mean_ES_IFN-γ by setting is: under setting [2], 1.215; under setting [1], 1.215.

With “SSSGAKGKWHDHYGGGRHRDPPWHDWRGS [SEQ ID NO: 344]”, the mean_ES_IFN-γ under setting [1] was 0.1326. Still for that read-out and setting: then “VSSAAKGKTHDHNPSGRMRPPPWHDWRFS [SEQ ID NO: 322]”, with 0.4538.

In the case of “SSSGAKGKWHDHNPSGRWRDPGWHDWRVR [SEQ ID NO: 325]”, the mean_ES_IFN-γ under setting [1] came to 0.4435. The same measure, in the same setting: for “WPSTAKGKTHDHYGGGRMRPPPWHDWRAR [SEQ ID NO: 318]” the value was 0.5137. As to “MLSTAKGKTHDHYWGGRMRPPPWHDWRFS [SEQ ID NO: 292]”, the mean_ES_IFN-γ under setting [1] is 0.7049. For the sequence “MPSGAKGKTHDHYGGGRMRPPPWHDWRFS [SEQ ID NO: 13]”, the mean_ES_IFN-γ is listed as 1.216 under setting [2] and 1.216 under setting [1]. In the case of “WPSAAKGKTHDHNPSGRMRPPPWHDWRFS [SEQ ID NO: 26]”, the mean_ES_IFN-γ amounted to 1.078 under setting [2] and 1.078 under setting [1].

As for “FGSGAKGKTHDHYPSGRMRPPPWHDWRVR [SEQ ID NO: 7]”, the mean_ES_IFN-γ is, setting by setting: under setting [2], 1.319; under setting [1], 1.319. Regarding “PASAAKGKWHDHNPSGRMRDPPWHDWWGS [SEQ ID NO: 327]”, the mean_ES_IFN-γ under setting [1] came to 0.4162. Take “MASGAKGKTHDHNWSGRMRPPPWHDWRGR [SEQ ID NO: 245]”: the mean_ES_IFN-γ under setting [1] is on record as 0.9801.

Consider “WVSAAKGKTHDHNGGGRWRDPGWHDWRFS [SEQ ID NO: 336]”, for which the mean_ES_IFN-γ under setting [1] turned out to be 0.3032. The same measure, in the same setting: then “MASGAKGKTHDHYPGGRMRPPPWHDWRAR [SEQ ID NO: 287]”, with 0.7208. Regarding “MPSAAKGKTHDHYWSGRMRPPPWHDWRVS [SEQ ID NO: 246]”, under setting [1], the mean_ES_IFN-γ is recorded as 0.9753. With “FASAAKGKTHDHYPGGRMRPPPWHDWRFS [SEQ ID NO: 254]”, the mean_ES_IFN-γ under setting [1] was found to be 0.9426. For the sequence “WGSAAKGKTHDHYGSGRYRDPPWHDWRAR [SEQ ID NO: 32]”, the mean_ES_IFN-γ by setting is: under setting [2], 1.038; under setting [1], 1.038. Take “MPSAAKGKWHDHYPSGRMRPPPWHDWRAR [SEQ ID NO: 12]”: the mean_ES_IFN-γ turned out to be 1.216 under setting [2] and 1.216 under setting [1]. With “PLSAAKGKWHDHYWSGRMRDPPWHDWRVS [SEQ ID NO: 260]”, the mean_ES_IFN-γ under setting [1] is on record as 0.8986. Same read-out and setting: then “MGSGAKGKTHDHWPSGRMRPPPWHDWRVS [SEQ ID NO: 268]”, with 0.8466. Turning to “WGSAAKGKTHDHWPSGRYRDPKWHDWRVS [SEQ ID NO: 21]”, the mean_ES_IFN-γ runs as follows: under setting [2], 1.134; under setting [1], 1.134.

As to “SVSAAKGKTHDHYPSGRWRDPPWHDWRAS [SEQ ID NO: 300]”, the mean_ES_IFN-γ under setting [1] was 0.645. “MASTAKGKTHDHYGGGRMRPPPWHDWRVR [SEQ ID NO: 314]”: the mean_ES_IFN-γ under setting [1] worked out at 0.5458. Same read-out and setting: then “WSSAAKGKTHDHNWSGRHRPPPWHDWRFS [SEQ ID NO: 250]”, with 0.9527. The same measure, in the same setting: for “MPSGAKGKWHDHYGGGRMRDPGWHDWRGS [SEQ ID NO: 317]” the value was 0.5191; for “PASGAKTKWHDHNPSGRHRDPPWHDWRVS [SEQ ID NO: 328]”, 0.3967; for “MVSTAKGKTHDHYGGGRYRPPPWHDWRAR [SEQ ID NO: 266]”, 0.8498.

With “MGSAAKGKWHDHYPGGRHRDPPWHDWRAS [SEQ ID NO: 319]”, the mean_ES_IFN-γ under setting [1] amounted to 0.5086.

Turning to “WLSAAKAKTHDHWGSGRHRPPPWHDWRGS [SEQ ID NO: 315]”, the mean_ES_IFN-γ under setting [1] came out at 0.5302. For the sequence “PASGAKGKTHDHYPSGRWRDSGWHDWRFS [SEQ ID NO: 313]”, the mean_ES_IFN-γ under setting [1] is 0.5536. Same read-out and setting: then “WSSGAKTKWHDHNPGGRMRDPPWHDWRGS [SEQ ID NO: 335]”, with 0.3156.

Consider “WPSGAKGKWHDHYPGGRMRPPPWHDWRFS [SEQ ID NO: 4]”, for which the mean_ES_IFN-γ was 1.351 under setting [2] and 1.351 under setting [1]. “MSSGAKTKTHDHYPSGRMRPPPWHDWRAR [SEQ ID NO: 303]”: the mean_ES_IFN-γ under setting [1] amounted to 0.6184. On the same count and under the same terms, then “SASAAKGKTHDHWGGGRHRDPPWHDWRFS [SEQ ID NO: 341]”, with 0.2746. In the case of “WSSTAKGKTHDHWPSGRYRPPPWHDWRAR [SEQ ID NO: 35]”, the mean_ES_IFN-γ under setting [2] worked out at 1.009 and the mean_ES_IFN-γ under setting [1] is 1.009. In the case of “FGSAAKGKTHDHWPSGRHRDPGWHDWRFS [SEQ ID NO: 23]”, the mean_ES_IFN-γ reads like this: under setting [2], 1.129; under setting [1], 1.129. “WPSAAKGKTHDHYPGGRYRPPPWHDWRVR [SEQ ID NO: 295]”: the mean_ES_IFN-γ under setting [1] is 0.6782.

The values above are taken from US20230272016A1, “PEPTIDES FOR IMMUNOTHERAPY” (Second Genome, Inc., priority 2020, published 2023).
